Measured values as given in the supplement of paper PMC9938120.

Legend:
Test in all cases: drug sensitivity score (DSS3, normalised partial AUC of % inhibition dose-response) (DSS (score)); higher = more sensitive (stronger inhibition of viability); extreme values may be limits of the assay
FMOC02_1 = patient-derived low-grade serous ovarian cancer cells; details: 72 h; library: FO5A; assay format: 2D, 384-well, CellTiter-Glo
How it was run: (§1)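 Patient-derived ovarian cancer cells (early passage, under 10) were dispensed onto 384-well flat clear-bottom plates pre-plated with compounds at five concentrations covering a 10,000-fold range. Plates were incubated 72 h at 37 °C, 5% CO2, and viability was read with CellTiter-Glo. Data were processed in Breeze. The drug sensitivity score (DSS3) is a partial area under the percent-inhibition dose-response curve, divided by the log of the upper asymptote; higher means more sensitive.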

FMOC02_2 = patient-derived low-grade serous ovarian cancer cells; details: 72 h; library: FO5A; assay format: 2D, 384-well, CellTiter-Glo
How it was run: as §1

FMOC02_3 = patient-derived low-grade serous ovarian cancer cells; details: 72 h; library: FO5A; assay format: 2D, 384-well, CellTiter-Glo
How it was run: as §1

FMOC03 = patient-derived mucinous ovarian cancer cells; details: 72 h; library: FO5A; assay format: 2D, 384-well, CellTiter-Glo
How it was run: as §1

FMOC04 = patient-derived high-grade serous ovarian cancer cells; details: 72 h; library: FO5A; assay format: 2D, 384-well, CellTiter-Glo
How it was run: as §1

FMOC06 = patient-derived mucinous ovarian cancer cells; details: 72 h; library: FO5A; assay format: 2D, 384-well, CellTiter-Glo
How it was run: as §1

FMOC09 = patient-derived high-grade serous ovarian cancer cells; details: 72 h; library: FO5A; assay format: 2D, 384-well, CellTiter-Glo
How it was run: as §1

FMOC11 = patient-derived high-grade serous ovarian cancer cells; details: 72 h; library: FO5A; assay format: 2D, 384-well, CellTiter-Glo
How it was run: as §1

FMOC14 = patient-derived high-grade serous ovarian cancer cells; details: 72 h; library: FO5A; assay format: 2D, 384-well, CellTiter-Glo
How it was run: as §1

FMOC17 = patient-derived low-grade serous ovarian cancer cells; details: 72 h; library: FO5A; assay format: 2D, 384-well, CellTiter-Glo
How it was run: as §1

FMOC22 = patient-derived mucinous ovarian cancer cells; details: 72 h; library: FO5A; assay format: 2D, 384-well, CellTiter-Glo
How it was run: as §1

FMOC24 = patient-derived high-grade serous ovarian cancer cells; details: 72 h; library: FO5A; assay format: 2D, 384-well, CellTiter-Glo
How it was run: as §1

FMOC25_1 = patient-derived low-grade serous ovarian cancer cells; details: 72 h; library: FO4B; assay format: 2D, 384-well, CellTiter-Glo
How it was run: as §1

FMOC25_2 = patient-derived low-grade serous ovarian cancer cells; details: 72 h; library: FO5A; assay format: 2D, 384-well, CellTiter-Glo
How it was run: as §1

FMOC27 = patient-derived low-grade serous ovarian cancer cells; details: 72 h; library: FO5A; assay format: 2D, 384-well, CellTiter-Glo
How it was run: as §1

FMOC28 = patient-derived low-grade serous ovarian cancer cells; details: 72 h; library: FO5A; assay format: 2D, 384-well, CellTiter-Glo
How it was run: as §1

| SMILES | drug sensitivity score (FMOC02_1) | drug sensitivity score (FMOC02_2) | drug sensitivity score (FMOC02_3) | drug sensitivity score (FMOC03) | drug sensitivity score (FMOC04) | drug sensitivity score (FMOC06) | drug sensitivity score (FMOC09) | drug sensitivity score (FMOC11) | drug sensitivity score (FMOC14) | drug sensitivity score (FMOC17) | drug sensitivity score (FMOC22) | drug sensitivity score (FMOC24) | drug sensitivity score (FMOC25_1) | drug sensitivity score (FMOC25_2) | drug sensitivity score (FMOC27) | drug sensitivity score (FMOC28) |
| --- | --- | --- | --- | --- | --- | --- | --- | --- | --- | --- | --- | --- | --- | --- | --- | --- |
| CNC(=O)c1ccc2cc([C@@]3(O)CCn4cncc43)ccc2c1 [Orteronel] | 0 | 0 | 0 | 0 | 0 | 0 | 0 | 0 | 0 | 0 | 0 | 0 | 0 | 1.4 | 0 | 0.2 |
| Cc1cnc(-c2ccccc2C(C)C)nc1NCc1ccc(-n2ccnn2)cc1 [ML323] | 0.1 | 3.1 | 0.2 | 0.9 | 0 | 0 | 0 | 0 | 0 | 0 | 0.3 | 0.8 | 0.6 | 1.7 | 0.6 | 0.9 |
| C/C(=C\c1csc(C)n1)[C@@H]1C[C@@H]2O[C@]2(C)CCC[C@H](C)[C@H](O)[C@@H](C)C(=O)C(C)(C)[C@@H](O)CC(=O)N1 [Ixabepilone] | 4.1 | 1.7 | 2.6 | 3 | 1.85 | 2.7 | 1.7 | 3.1 | 0 | 4.4 | 2.3 | 0 | 1.1 | 2.5 | 0.9 | 0 |
| Cc1cccc(CC(=O)N2CCc3c2ccc(-c2cn(C)c4ncnc(N)c24)c3F)n1 | 0 | 0 | 0 | 0 | 0 | 0 | 0 | 0 | 0 | 0 | 0.2 | 0 | 0.2 | 1.6 | 0 | 0 |
| C=C(c1ccc(C(=O)O)cc1)c1cc2c(cc1C)C(C)(C)CCC2(C)C [Bexarotene] | 0 | 6 | 4.3 | 1.7 | 0 | 0 | 1.8 | 1.2 | 0 | 0.1 | 1.1 | 0.9 | 0.3 | 0 | 1.5 | 5.3 |
| C[C@H]1C[C@@H]2[C@H]([C@@H](O)C[C@@]3(C)[C@H]2CC[C@]3(O)C(=O)CO)[C@@]2(C)C=CC(=O)C=C12 [Methylprednisolone] | 0 | 0 | 0 | 0 | 0 | 0.1 | 0.1 | 0.6 | 0 | 0 | 0 | 0 | 0 | 0 | 0 | 0 |
| C[C@@H]1C[C@H]2[C@@H]3CCC4=CC(=O)C=C[C@]4(C)[C@@]3(F)[C@@H](O)C[C@]2(C)[C@@]1(O)C(=O)CO [Dexamethasone] | 0 | 0 | 0 | 0 | 0 | 0 | 0 | 0 | 0 | 1.3 | 0 | 0 | 0 | 0 | 0 | 0 |
| O=C(O)c1ccc(O)c2ncccc12 [IOX-1] | 0 | 0.2 | 0 | 3 | 0 | 1 | 0 | 1.6 | 1.9 | 0 | 1.6 | 0 | 0 | 0 | 0 | 0 |
| Cc1cc([C@@H](C)Nc2ccccc2C(=O)O)c2nc(N3CCOCC3)cc(=O)n2c1 [AZD-6482] | 0 | 0.6 | 2.3 | 0.5 | 0 | 0 | 0.1 | 0.9 | 0.4 | 2.8 | 0 | 0.5 | 2.5 | 0.8 | 0 | 0 |
| COc1cc(OC2CCN(C)CC2)ccc1Nc1ncc2c(n1)n(C1CCCC1)c(=O)n2C [AZ 3146] | 5.2 | 5.2 | 9 | 0.7 | 1.3 | 2.9 | 1.1 | 1.3 | 0.9 | 4.7 | 0.8 | 6.25 | 3.7 | 6 | 4.4 | 2.3 |
| COc1cc2c(cc1OCCCN1CCCC1)N=C(N)C21CCC1 [A-366] | 3.9 | 0.2 | 0 | 0.7 | 3.9 | 0 | 2.3 | 1.1 | 0.5 | 2.3 | 0 | 7.2 | – | 4.9 | 0 | 0.1 |
| O=C1Cc2cc(C(=O)NC3C[C@H]4CC[C@@H](C3)N4S(=O)(=O)CC3CCN(CCCC(F)(F)F)CC3)c(Cl)cc2N1 (stereo not given in full) | 0 | 0 | 0 | 0 | 0 | 2.3 | 0 | 0 | 0 | 0 | 0 | 0 | – | 0 | 0 | 0.2 |
| CC#CC(=O)N1CC[C@@H](n2c(=O)n(-c3ccc(Oc4ccccc4)cc3)c3c(N)ncnc32)C1 [Tirabrutinib] | 3.9 | 3.9 | 3.5 | 1.8 | 0 | 0 | 0 | 1.6 | 0 | 2.6 | 0 | 0 | – | 3.5 | 1.1 | 0 |
| CNS(=O)(=O)Nc1nccc(Cc2c(C)c3ccc(Oc4ncccn4)cc3oc2=O)c1F | 0 | 0.8 | 3.7 | 0.4 | 0 | 0.4 | 0.7 | 0 | 0 | 0 | 0.7 | 0 | – | 5.2 | 0 | 4.5 |
| Cc1cc(F)c(C(=O)Nc2cccc(-c3nncn3C(C)C)n2)cc1-n1cnc(C2CC2)c1 [Selonsertib] | 0 | 0 | 0 | 0 | 0 | 0 | 0 | 0 | 0 | 1.5 | 0 | 0.6 | – | 0 | 0 | 0 |
| CCc1nc(C(N)=O)c(Nc2ccc(N3CCC(N4CCN(C)CC4)CC3)c(OC)c2)nc1NC1CCOCC1 [Gilteritinib] | 4.2 | 3.2 | 4.5 | 0.1 | 1.1 | 4.5 | 1.7 | 1.9 | 0 | 1.7 | 0.1 | 0.1 | – | 4.4 | 0 | 0.5 |
| COc1cccc(-c2ccc(NC(=O)C3=C(C(=O)O)CCC3)c(F)c2)c1 [Vidofludimus] | 0 | 0 | 0 | 0.4 | 0.05 | 0 | 0 | 0.6 | 0 | 0 | 0 | 0 | – | 2.5 | 0 | 0 |
| O[C@H](C[C@H]1c2c(F)cccc2-c2cncn21)[C@H]1CC[C@H](O)CC1 [GDC-0919] | 0.2 | 3.6 | 2.1 | 0.1 | 0 | 1 | 0.3 | 1.7 | 0.8 | 0.8 | 0.4 | 0.55 | – | 0.1 | 2 | 2.2 |
| CCN1CCN(c2ccc(Nc3cc(N(C)C(=O)Nc4c(Cl)c(OC)cc(OC)c4Cl)ncn3)cc2)CC1 [Infigratinib] | 0 | 0 | 0 | 0 | 0 | 0 | 0 | 0 | 0 | 0 | 0 | 0.05 | – | 0 | 0 | 0.5 |
| O=C(Nc1cc(Oc2cc(F)c(NC(=O)C3(C(=O)Nc4ccc(F)cc4)CC3)cc2F)ccn1)C1CC1 [Altiratinib] | 4.9 | 5.2 | 5.1 | 5 | 1.05 | 6.9 | 1.7 | 2.4 | 5.1 | 3 | 4.3 | 8.2 | – | 9.1 | 5.1 | 3.3 |
| Cc1nc(C(=O)NCC(=O)O)c(O)c2ccc(Oc3ccccc3)cc12 [Roxadustat] | 0 | 0 | 0 | 0 | 0 | 0 | 0 | 0 | 0 | 0 | 0 | 3.3 | – | 0 | 0.2 | 0 |
| CC(C)(O)CNc1nc(Nc2ccnc(C(F)(F)F)c2)nc(-c2cccc(C(F)(F)F)n2)n1 [Enasidenib] | 1.5 | 2.5 | 0 | 1.4 | 0 | 0 | 0 | 0 | 0 | 2.3 | 0 | 0 | – | 1.7 | 0 | 4.4 |
| CONC(=O)c1ccccc1Nc1cc(Nc2cc(C)nn2C(C)C)ncc1Cl | 0 | 1.6 | 1 | 0 | 0 | 0 | 1.4 | 0 | 0 | 0.3 | 0 | 0.2 | – | 1.7 | 0 | 0 |
| COc1cc(C)c(/C=C/C(C)=C/C=C/C(C)=C/C(=O)O)c(C)c1C [Acitretin] | 0.2 | 0.7 | 3.4 | 0 | 0 | 0.1 | 0 | 2.8 | 0 | 0 | 0 | 0 | – | 0 | 0 | 0.3 |
